According to publication PMC11588247, “Antimicrobial and antioxidant activities of peptide derived from turmeric plant (Curcuma longa L)” (PLOS ONE, 2024):
Ends that are not written are not given here.

Legend:
[1] = system: Staphylococcus epidermidis (ATCC 12228); test: microbe, parasite or virus in culture; type: cell-based; conditions: sample 100 μg/mL, 6 h at 37°C, MTT OD570 vs inoculated broth control
Excerpt: (§1) Pathogenic microorganism composes of Escherichia coli (ATCC 25922), Staphylococcus aureus (ATCC 25923), Staphylococcus epidermidis (ATCC 12228), Bacillus subtilis (ATCC 6633), Bacillus cereus (ATCC 11778), Pseudomonas aeruginosa (ATCC 27853), Vibrio parahaemolyticus (ATCC 17802), Klebsiella pneumoniae (ATCC 27736), Acinetobacter baumannii (ATCC 19606), Enterobacter cloacae (ATCC 13047), Salmonella enterica (ATCC 13311), and Salmonella Typhi (ATCC 22842) were used in the experiments.
(§2) Bacteria were initially cultured on Tryptic Soy Agar (TSA) plates at 37°C for 12–16 hours. A single colony was transferred to Tryptic Soy Broth (TSB) and incubated at 37°C with gently agitation at 100 rpm, for an additional 12–16 hours. The bacterial concentration was adjusted to an optical density at 600 nm (OD600) of 0.05, corresponding to 4 x 10^7 CFU/mL, before being added to a 96-well plate (50 μL per well). Subsequently, 50 μL of protein hydrolysate or peptide was inoculated into each well at a final concentration of 100 μg/mL, and the mixture was incubated at 37°C with continuous shaking at 100 rpm for 6 hours. Wells with inoculated broth alone served as a negative control, while wells containing Ampicillin (100 μg/mL) served as a positive control. Following incubation, 25 μL of a 100 μg/mL MTT (3-(4,5-dimethylthiazol-2-yl)-2,5-diphenyltetrazolium bromide) solution was added to each well, thoroughly mixed, and incubated at room temperature for 4 hours. The optical density at 570 nm (OD570nm) was subsequently measured using a microplate reader (Synergy H1 Hybrid Multi-Mode Reader, Biotek, Winusky, VT, USA). The percentage of inhibition was calculated using the provided equation: [(OD570control–OD570test)/OD570control]×100 (1)

[2] = system: Staphylococcus aureus (ATCC 25923); test: microbe, parasite or virus in culture; type: cell-based; conditions: sample 100 μg/mL, 6 h at 37°C, MTT OD570 vs inoculated broth control
Excerpt: as §1, §2

[3] = system: Salmonella enterica (ATCC 13311); test: microbe, parasite or virus in culture; type: cell-based; conditions: sample 100 μg/mL, 6 h at 37°C, MTT OD570 vs inoculated broth control
Excerpt: as §1, §2

[4] = system: Acinetobacter baumannii (ATCC 19606); test: microbe, parasite or virus in culture; type: cell-based; conditions: sample 100 μg/mL, 6 h at 37°C, MTT OD570 vs inoculated broth control
Excerpt: as §1, §2

[5] = system: Escherichia coli (ATCC 25922); test: Antimicrobial activity assay (broth culture, MTT read-out); type: cell-based; conditions: ATCC25922, sample 100 μg/mL, 6 h at 37°C, MTT OD570 vs inoculated broth control, read-out: Inhibitory Percentage (Means±SD), Escherichia coli ATCC 25922
Excerpt: as §1, §2

[6] = system: Bacillus subtilis (ATCC 6633); test: as above; type: cell-based; conditions: ATCC6633, sample 100 μg/mL, 6 h at 37°C, MTT OD570 vs inoculated broth control, read-out: Inhibitory Percentage (Means±SD), Bacillus subtilis ATCC 6633
Excerpt: as §1, §2

[7] = system: Vibrio parahaemolyticus (ATCC 17802); test: as above; type: cell-based; conditions: ATCC17802, sample 100 μg/mL, 6 h at 37°C, MTT OD570 vs inoculated broth control, read-out: Inhibitory Percentage (Means±SD), Vibrio parahaemolyticus ATCC 17802
Excerpt: as §1, §2

[8] = system: Salmonella Typhi (ATCC 22842); test: as above; type: cell-based; conditions: Salmonella enterica, 6 h, read-out: Inhibitory Percentage (Means±SD), Salmonella Typhi ATCC 22842
Excerpt: as §1, §2

[9] = system: Klebsiella pneumoniae (ATCC 27736); test: as above; type: cell-based; conditions: ATCC27736, sample 100 μg/mL, 6 h at 37°C, MTT OD570 vs inoculated broth control, read-out: Inhibitory Percentage (Means±SD), Klebsiella pneumoniae ATCC 27736
Excerpt: as §1, §2

[10] = system: Pseudomonas aeruginosa (ATCC 27853); test: as above; type: cell-based; conditions: ATCC27853, sample 100 μg/mL, 6 h at 37°C, MTT OD570 vs inoculated broth control, read-out: Inhibitory Percentage (Means±SD), Pseudomonas aeruginosa ATCC 27853
Excerpt: as §1, §2

[11] = system: Bacillus cereus (ATCC 11778); test: as above; type: cell-based; conditions: ATCC11778, sample 100 μg/mL, 6 h at 37°C, MTT OD570 vs inoculated broth control, read-out: Inhibitory Percentage (Means±SD), Bacillus cereus ATCC 11778
Excerpt: as §1, §2

[12] = system: Enterobacter cloacae (ATCC 13047); test: as above; type: cell-based; conditions: ATCC13047, sample 100 μg/mL, 6 h at 37°C, MTT OD570 vs inoculated broth control, read-out: Inhibitory Percentage (Means±SD), Enterobacter cloacae ATCC 13047
Excerpt: as §1, §2

[13] = DPPH radical scavenging assay; conditions: 10 μL sample + 190 μL 0.1 mM DPPH, 30 min dark, room temperature, absorbance 517 nm, ascorbic acid standard; hydrolysate at 100 μg/mL
Procedure: The DPPH radical scavenging activity of the sample was evaluated following the protocol by Muangrod et al. with slight modifications. Briefly, 190 μL of 0.1 mM DPPH was mixed with 10 μL of the sample or standard ascorbic acid in each well and incubated at room temperature in the dark for 30 minutes. The absorbance of the mixture was measured at 517 nm using a microplate reader (Synergy H1 Hybrid Multi-Mode Reader, Biotek, Winusky, VT, USA). The percentage inhibition of DPPH radical scavenging activity was calculated using the following equation: %DPPHinhibition=[(Acontrol−Asample)/Acontrol]×100 (2) where A control means the absorbance of the control that contained all reagents except the test samples, and A sample means the absorbance of the mixture (sample and 0.1 mM DPPH). Ascorbic acid was used as the standard. Results were expressed as μg ascorbic acid equivalent (μg AAE g^−1).

[14] = ABTS radical scavenging assay; conditions: 10 μL sample + 190 μL ABTS solution, 5 min dark, absorbance 750 nm, ascorbic acid standard; hydrolysate at 100 μg/mL
Procedure: Radical scavenging antioxidant activity was determined according to the ABTS radical scavenging activity following the method described by Re et al. with slight modifications. Briefly, the solution of ABTS radical was prepared from the reaction between 7 mM ABTS (2,2-azino-bis (3-ethylbenzothiazoline-6-sulphonic acid) diammonium salt) and 2.45 mM ammonium persulphate. The resulting ABTS solution was diluted with distilled water to achieve an optical density of 0.7 at 750 nm. Then, a sample or standard of 10 μL was mixed with 190 μL of ABTS solution and incubated for 5 minutes in the dark. The absorbance was measured at 750 nm by a microplate reader (Synergy H1 Hybrid Multi-Mode Reader, Biotek, Winusky, VT, USA). Ascorbic acid was used as the standard.

[15] = FRAP (ferric ion-reducing antioxidant power) assay; conditions: 10 μL sample + 190 μL FRAP reagent (acetate pH 3.6, TPTZ, FeCl3), 30 min dark, absorbance 593 nm, ascorbic acid standard; hydrolysate at 100 μg/mL
Procedure: The ferric ion-reducing antioxidant power assay was analyzed according to the method by Rumpf et al. with minor modifications. Briefly, the FRAP reagent was prepared from 300 mM sodium acetate (pH 3.6) and 10 mM TPTZ (2,4,6-tris (2-pyridyl)-s-triazine) in 40 mM HCl and 20 mM ferric chloride at the ratio of 10:1:1, respectively. Then, a 10 μL aliquot of the sample or standard was mixed with 190 μL of the FRAP reagent before incubating in the dark for 30 minutes. The absorbance was measured at 593 nm using a microplate reader (Synergy H1 Hybrid Multi-Mode Reader, Biotek, Winusky, VT, USA). Ascorbic acid (Sigma-Aldrich, Singapore) was used as the standard. Results were expressed as micrograms of ascorbic acid equivalent per gram (μg AAE g^−1).

Compound CC1(C)S[C@@H]2[C@H](NC(=O)[C@H](N)c3ccccc3)C(=O)N2[C@H]1C(=O)O [Ampicillin] has an inhibition at 100 µg/mL ([1]; Staphylococcus epidermidis, ATCC12228, read-out: Inhibitory Percentage (Means±SD), Staphylococcus epidermidis ATCC 12228) of 7.42 ± 0.23%, an inhibition at 100 µg/mL ([2]; Staphylococcus aureus, ATCC25923, read-out: Inhibitory Percentage (Means±SD), Staphylococcus aureus ATCC 25923) of -2.72 ± 0.02% and an inhibition at 100 µg/mL ([3]; Salmonella enterica, ATCC13311, read-out: Inhibitory Percentage (Means±SD), Salmonella enterica ATCC 13311) of 84.6 ± 4.34%. It also gave an inhibition at 100 µg/mL ([4]; Acinetobacter baumannii, ATCC19606, read-out: Inhibitory Percentage (Means±SD), Acinetobacter baumannii ATCC 19606) of 42 ± 4.67%, an inhibition at 100 µg/mL [5] of 82.1 ± 2.62% and an inhibition at 100 µg/mL [6] of 96.5 ± 4.03%. For the same compound, the inhibition at 100 µg/mL [7] was -45.8 ± 1.54%, the inhibition at 100 µg/mL [8] was 8.6 ± 0.22% and the inhibition at 100 µg/mL [9] was -19.1 ± 1.32%. It also gave an inhibition at 100 µg/mL [10] of 16.3 ± 0.87%, an inhibition at 100 µg/mL [11] of 35.9 ± 1.46% and an inhibition at 100 µg/mL [12] of 15.6 ± 0.89%.
For ARLLLLKP [Cur-8], the “DPPH radical scavenging activity (antioxidant activity ± SD)” value [13] was 0.58±0.00 μg AAE g^−1, the “ABTS radical-scavenging activity (antioxidant activity ± SD)” value [14] was 0.13±0.00 μg AAE g^−1 and the “FRAP (antioxidant activity ± SD)” value [15] was 1.05±0.01 μg AAE g^−1.
With HAFRDAVTPLE [Cur-12] the “DPPH radical scavenging activity (antioxidant activity ± SD)” value [13] was 0.60±0.06 μg AAE g^−1, the “ABTS radical-scavenging activity (antioxidant activity ± SD)” value [14] was 0.02±0.00 μg AAE g^−1 and the “FRAP (antioxidant activity ± SD)” value [15] was 1.04±0.01 μg AAE g^−1.
In the case of KLHLLILI [Cur-1], the “DPPH radical scavenging activity (antioxidant activity ± SD)” value [13] is reported as 0.63±0.04 μg AAE g^−1, the “ABTS radical-scavenging activity (antioxidant activity ± SD)” value [14] is reported as 0.22±0.00 μg AAE g^−1 and the “Inhibitory Percentage (Means±SD), Staphylococcus epidermidis ATCC 12228” value ([1]; listed as Cur-25) is reported as “inhibited growth”. The “Inhibitory Percentage (Means±SD), Staphylococcus aureus ATCC 25923” value ([2]; listed as Cur-25) was “inhibited growth”, the “Inhibitory Percentage (Means±SD), Salmonella enterica ATCC 13311” value ([3]; listed as Cur-25) was “inhibited growth” and the “Inhibitory Percentage (Means±SD), Acinetobacter baumannii ATCC 19606” value ([4]; listed as Cur-25) was “inhibited growth”. The “FRAP (antioxidant activity ± SD)” value [15] was 1.05±0.01 μg AAE g^−1.
With LKKPVILL [Cur-11] the “DPPH radical scavenging activity (antioxidant activity ± SD)” value [13] was 0.68±0.02 μg AAE g^−1, the “ABTS radical-scavenging activity (antioxidant activity ± SD)” value [14] was 0.17±0.01 μg AAE g^−1 and the “FRAP (antioxidant activity ± SD)” value [15] was 1.05±0.01 μg AAE g^−1.
For LKKTLLLVNKADLLP [Cur-5], the “DPPH radical scavenging activity (antioxidant activity ± SD)” value [13] was 0.62±0.01 μg AAE g^−1, the “ABTS radical-scavenging activity (antioxidant activity ± SD)” value [14] was 0.12±0.00 μg AAE g^−1 and the “FRAP (antioxidant activity ± SD)” value [15] was 1.04±0.00 μg AAE g^−1.
